This test addresses T1, chicken gizzard smooth muscle myosin subfragment-1 chemically crosslinked to cardiac or skeletal actin (Gallus gallus, UniProt P10587).
T1 construct: chicken gizzard smooth muscle myosin subfragment-1; from tissue; host or cells: chicken gizzard
Nature of the test: Smooth muscle myosin ATPase dose response assay (pyruvate kinase/horseradish peroxidase/pyruvate oxidase-coupled, amplex red fluorescence). In kind it is biochemical. As to conditions: read-out: IC50 Arithmetic Mean. The procedure, abridged:
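Amplex red fluorescence (480 nm excitation, 615 nm emission) tracked ATP hydrolysis by smooth muscle S1 crosslinked to actin with carbodiimide/N-hydroxysuccinimide. Reactions contained 0.15 mM ATP and 100 mM KCl at pH 7.00, 22° C. IC50 came from a four-parameter logistic fit.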

Structures are written as SMILES.

Experimental findings from patent US7932270B2 (Cytokinetics, Inc., priority 2006, dated 2011) are described below.

One may read the IC50 as the concentration at which inhibition is half-maximal.

T1 sequence (P02607 2-151): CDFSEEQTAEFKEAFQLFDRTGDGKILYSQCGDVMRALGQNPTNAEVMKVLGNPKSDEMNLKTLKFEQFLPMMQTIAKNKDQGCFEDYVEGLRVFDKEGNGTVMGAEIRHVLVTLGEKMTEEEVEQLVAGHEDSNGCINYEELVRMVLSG
T1 sequence (P10587 84-789): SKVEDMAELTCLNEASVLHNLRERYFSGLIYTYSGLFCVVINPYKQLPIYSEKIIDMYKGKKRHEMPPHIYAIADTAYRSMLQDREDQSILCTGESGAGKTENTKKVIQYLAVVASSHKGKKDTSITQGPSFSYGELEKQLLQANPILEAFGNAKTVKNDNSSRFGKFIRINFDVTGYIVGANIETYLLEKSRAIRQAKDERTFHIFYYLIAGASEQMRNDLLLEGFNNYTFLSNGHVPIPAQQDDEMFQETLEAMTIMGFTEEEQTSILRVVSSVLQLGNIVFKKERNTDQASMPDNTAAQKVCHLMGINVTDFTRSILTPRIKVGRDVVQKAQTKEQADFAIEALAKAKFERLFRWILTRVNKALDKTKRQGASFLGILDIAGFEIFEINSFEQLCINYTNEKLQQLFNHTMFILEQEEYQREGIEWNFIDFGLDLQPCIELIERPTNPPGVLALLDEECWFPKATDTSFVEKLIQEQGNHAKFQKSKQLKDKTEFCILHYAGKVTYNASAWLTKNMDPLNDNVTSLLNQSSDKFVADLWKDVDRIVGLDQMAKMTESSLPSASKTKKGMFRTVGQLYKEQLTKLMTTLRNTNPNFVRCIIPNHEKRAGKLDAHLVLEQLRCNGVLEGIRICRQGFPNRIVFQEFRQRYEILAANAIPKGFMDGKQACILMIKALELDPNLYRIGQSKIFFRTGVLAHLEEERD

For the molecule `Cn1cc(-c2ccc(C(=O)NC[C@@H]3CNCC(=O)N3)c(NCCc3cccc(F)c3)n2)cn1` [N-[((2S)-6-oxopiperazin-2-yl)methyl](2-{[2-(3-fluorophenyl)ethyl]amino}-6-(1-methylpyrazol-4-yl)(3-pyridyl))carboxamide], the IC50 came out at 13.1 µM. For `O=C1CNC[C@@H](CNC(=O)c2ccc(-c3cc[nH]n3)nc2NCCc2cccc(F)c2)N1` [N-[((2S)-6-oxopiperazin-2-yl)methyl](2-{[2-(3-fluorophenyl)ethyl]amino}-6-pyrazol-3-yl(3-pyridyl))carboxamide], the IC50 amounted to 6.39 µM. As for `O=C1CNC[C@@H](CNC(=O)c2ccc(-c3cn[nH]c3)nc2NCCc2cccc(F)c2)N1` [N-[((2S)-6-oxopiperazin-2-yl)methyl](2-{[2-(3-fluorophenyl)ethyl]amino}-6-pyrazol-4-yl(3-pyridyl))carboxamide], the figure is 16 µM; as for `N#Cc1ccccc1-c1ccc(C(=O)NC[C@@H]2CNCC(=O)N2)c(NCCc2cccc(F)c2)n1` [N-[((2S)-6-oxopiperazin-2-yl)methyl](6-(2-cyanophenyl)-2-{[2-(3-fluorophenyl)ethyl]amino}(3-pyridyl))carboxamide], 0.819 µM; as for `O=C(NC[C@@H]1CCCO1)c1ccc(-c2ccccc2)nc1NCCc1ccccn1` [N-[((2S)oxolan-2-yl)methyl]{6-phenyl-2-[(2-(2-pyridyl)ethyl)amino](3-pyridyl)}carboxamide], 6.82 µM. Then `N#Cc1ccccc1-c1ccc(C(=O)NC[C@@H]2CCCN2)c(NCCc2cccc(F)c2)n1` [N-[((2S)pyrrolidin-2-yl)methyl](6-(2-cyanophenyl)-2-{[2-(3-fluorophenyl)ethyl]amino}(3-pyridyl))carboxamide], with 4.57 µM. Turning to `N#Cc1ccccc1-c1ccc(C(=O)NC[C@@H]2CCCNC2)c(NCCc2cccc(F)c2)n1` [N-[((3R)(3-piperidyl))methyl](6-(2-cyanophenyl)-2-{[2-(3-fluorophenyl)ethyl]amino}(3-pyridyl))carboxamide], the IC50 is 2.15 µM. Take `CC(=O)N1CCC[C@H](CNC(=O)c2ccc(-c3ccccc3C#N)nc2NCCc2cccc(F)c2)C1` [N-[((3R)-1-acetyl(3-piperidyl))methyl](6-(2-cyanophenyl)-2-{[2-(3-fluorophenyl)ethyl]amino}(3-pyridyl))carboxamide]: the 50% inhibitory concentration (IC50) was 0.696 µM. As for `CC(=O)N1CC[C@H](CNC(=O)c2ccc(-c3ccccc3)nc2NCCc2ccccn2)C1` [N-[((3R)-1-acetylpyrrolidin-3-yl)methyl]{6-phenyl-2-[(2-(2-pyridyl)ethyl)amino](3-pyridyl)}carboxamide], the figure is 26.9 µM. As for `CC(C)(C)OC(=O)NCC(=O)N1CCC[C@H](CNC(=O)c2ccc(-c3ccccc3C#N)nc2NCCc2cccc(F)c2)C1` [N-[((3R)-1-{2-[(tert-butoxy)carbonylamino]acetyl}(3-piperidyl))methyl](6-(2-cyanophenyl)-2-{[2-(3-fluorophenyl)ethyl]amino}(3-pyridyl))carboxamide], the figure is 0.199 µM; as for `CC(C)(C)OC(=O)NCCC(=O)N1CCC[C@H](CNC(=O)c2ccc(-c3ccccc3C#N)nc2NCCc2cccc(F)c2)C1` [N-[((3R)-1-{3-[(tert-butoxy)carbonylamino]propanoyl}(3-piperidyl))methyl](6-(2-cyanophenyl)-2-{[2-(3-fluorophenyl)ethyl]amino}(3-pyridyl))carboxamide], 3.79 µM; as for `CC(C)(C)OC(=O)NCCCC(=O)N1CCC[C@H](CNC(=O)c2ccc(-c3ccccc3C#N)nc2NCCc2cccc(F)c2)C1` [N-[((3R)-1-{4-[(tert-butoxy)carbonylamino]butanoyl}(3-piperidyl))methyl](6-(2-cyanophenyl)-2-{[2-(3-fluorophenyl)ethyl]amino}(3-pyridyl))carboxamide], 6.16 µM. Then `O=C(NC[C@@H]1CCNC1)c1ccc(-c2ccccc2)nc1NCCc1ccccn1` [N-[((3R)pyrrolidin-3-yl)methyl]{6-phenyl-2-[(2-(2-pyridyl)ethyl)amino](3-pyridyl)}carboxamide], with 53.6 µM; and `N#Cc1ccccc1-c1ccc(C(=O)NC[C@H]2CCCNC2)c(NCCc2cccc(F)c2)n1` [N-[((3S)(3-piperidyl))methyl](6-(2-cyanophenyl)-2-{[2-(3-fluorophenyl)ethyl]amino}(3-pyridyl))carboxamide], with 1.97 µM. For `CC(=O)N1CCC[C@@H](CNC(=O)c2ccc(-c3ccccc3C#N)nc2NCCc2cccc(F)c2)C1` [N-[((3S)-1-acetyl(3-piperidyl))methyl](6-(2-cyanophenyl)-2-{[2-(3-fluorophenyl)ethyl]amino}(3-pyridyl))carboxamide], the IC50 amounted to 10.7 µM. As for `CC(=O)N1CC[C@@H](CNC(=O)c2ccc(-c3ccccc3)nc2NCCc2ccccn2)C1` [N-[((3S)-1-acetylpyrrolidin-3-yl)methyl]{6-phenyl-2-[(2-(2-pyridyl)ethyl)amino](3-pyridyl)}carboxamide], the figure is 25.2 µM; as for `O=C(NC[C@H]1CCNC1)c1ccc(-c2ccccc2)nc1NCCc1ccccn1` [N-[((3S)pyrrolidin-3-yl)methyl]{6-phenyl-2-[(2-(2-pyridyl)ethyl)amino](3-pyridyl)}carboxamide], 62.6 µM. Regarding `O=C(NCc1ccccc1)c1ccc(-c2ccccc2)nc1NCCc1ccccn1` [N-benzyl{6-phenyl-2-[(2-(2-pyridyl)ethyl)amino](3-pyridyl)}carboxamide], the IC50 came to 1.56 µM. For `CNC(=O)c1ccc(-c2ccccc2)nc1NCCc1cccc(C)c1` [N-methyl(2-{[2-(3-methylphenyl)ethyl]amino}-6-phenyl(3-pyridyl))carboxamide], the concentration for half-maximal inhibition (IC50) amounted to 6.75 µM.

As for `CNC(=O)CNC(=O)c1ccc(-c2ccccc2)nc1NCCc1ccccc1` [N-methyl-2-({6-phenyl-2-[(2-phenylethyl)amino](3-pyridyl)}carbonylamino)acetamide], the half-inhibitory concentration (IC50) came to 0.486 µM.

As to `CNC(=O)c1ccc(-c2ccccc2)nc1NCCc1ccccn1` [N-methyl{6-phenyl-2-[(2-(2-pyridyl)ethyl)amino](3-pyridyl)}carboxamide], the 50% inhibitory concentration (IC50) is 27.7 µM. As to `CNC(=O)c1ccc(-c2ccccc2)nc1NCCc1ccccc1` [N-methyl{6-phenyl-2-[(2-phenylethyl)amino](3-pyridyl)}carboxamide], the IC50 amounted to 18.6 µM.

On to `N#Cc1ccccc1-c1ccc(C(=O)NCCc2ncccc2CN)c(NCCc2cccc(F)c2)n1` [N-{2-[3-(aminomethyl)(2-pyridyl)]ethyl}(6-(2-cyanophenyl)-2-{[2-(3-fluorophenyl)ethyl]amino}(3-pyridyl))carboxamide], for which the IC50 was 0.31 µM. With `NCc1cccc(CCNC(=O)c2ccc(-c3ccccc3)nc2NCCc2cccc(F)c2)n1` [N-{2-[6-(aminomethyl)(2-pyridyl)]ethyl}(2-{[2-(3-fluorophenyl)ethyl]amino}-6-phenyl(3-pyridyl))carboxamide], the IC50 was 0.252 µM. As for `N#Cc1ccccc1-c1ccc(C(=O)NCCc2cccc(CN)n2)c(NCCc2cccc(F)c2)n1` [N-{2-[6-(aminomethyl)(2-pyridyl)]ethyl}(6-(2-cyanophenyl)-2-{[2-(3-fluorophenyl)ethyl]amino}(3-pyridyl))carboxamide], the figure is 0.032 µM; as for `N#Cc1ccccc1-c1ccc(C(=O)NCCNCCN)c(NCCc2cccc(F)c2)n1` [N-{2-[(2-aminoethyl)amino]ethyl}(6-(2-cyanophenyl)-2-{[2-(3-fluorophenyl)ethyl]amino}(3-pyridyl))carboxamide], 0.444 µM; as for `N#Cc1ccccc1-c1ccc(C(=O)NCCN2C(=O)CC[C@@H]2CN)c(NCCc2cccc(F)c2)n1` [N-{2-[(5R)-5-(aminomethyl)-2-oxopyrrolidinyl]ethyl}(6-(2-cyanophenyl)-2-{[2-(3-fluorophenyl)ethyl]amino}(3-pyridyl))carboxamide], 19.5 µM. With `N#Cc1ccccc1-c1ccc(C(=O)NCCN2C(=O)CC[C@H]2CN)c(NCCc2cccc(F)c2)n1` [N-{2-[(5S)-5-(aminomethyl)-2-oxopyrrolidinyl]ethyl}(6-(2-cyanophenyl)-2-{[2-(3-fluorophenyl)ethyl]amino}(3-pyridyl))carboxamide], the IC50 was 17.9 µM. As for `CC(=O)NCCNC(=O)c1ccc(-c2ccccc2C#N)nc1NCCc1cccc(F)c1` [N-{2-[(6-(2-cyanophenyl)-2-{[2-(3-fluorophenyl)ethyl]amino}-3-pyridyl)carbonylamino]ethyl}acetamide], the figure is 0.958 µM; as for `CN(CCNC(=O)c1ccc(-c2ccccc2C#N)nc1NCCc1cccc(F)c1)C(=O)OC(C)(C)C` [N-{2-[(tert-butoxy)-N-methylcarbonylamino]ethyl}(6-(2-cyanophenyl)-2-{[2-(3-fluorophenyl)ethyl]amino}(3-pyridyl))carboxamide], 42.2 µM. As for `CN(CCNC(=O)CNC(=O)c1ccc(-c2ccccc2C#N)nc1NCCc1cccc(F)c1)C(=O)OC(C)(C)C` [N-{2-[(tert-butoxy)-N-methylcarbonylamino]ethyl}-2-[(6-(2-cyanophenyl)-2-{[2-(3-fluorophenyl)ethyl]amino}(3-pyridyl))carbonylamino]acetamide], the figure is 65.5 µM; as for `CC(=O)NCCCNC(=O)c1cc(F)c(-c2cnn(C)c2)nc1NCCc1cccc(F)c1` [N-{3-[(5-fluoro-2-{[2-(3-fluorophenyl)ethyl]amino}-6-(1-methylpyrazol-4-yl)-3-pyridyl)carbonylamino]propyl}acetamide], 2.62 µM. As for `N#Cc1ccccc1-c1ccc(C(=O)NCCCN2C(=O)CC[C@@H]2CN)c(NCCc2cccc(F)c2)n1` [N-{3-[(5R)-5-(aminomethyl)-2-oxopyrrolidinyl]propyl}(6-(2-cyanophenyl)-2-{[2-(3-fluorophenyl)ethyl]amino}(3-pyridyl))carboxamide], the IC50 was 4.95 µM.

Consider `N#Cc1ccccc1-c1ccc(C(=O)NCCCN2C(=O)CC[C@H]2CN)c(NCCc2cccc(F)c2)n1` [N-{3-[(5S)-5-(aminomethyl)-2-oxopyrrolidinyl]propyl}(6-(2-cyanophenyl)-2-{[2-(3-fluorophenyl)ethyl]amino}(3-pyridyl))carboxamide], for which the IC50 is 11.7 µM.
